# Source: ChEMBL document CHEMBL3232874, “The applications of binuclear metallohydrolases in medicine: recent advances in the design and development of novel drug leads for purple acid phosphatases, metallo-β-lactamases and arginases” (Eur J Med Chem, 2014)
# pIC50, pKi: −log10 of the molar value. Square brackets hold non-standard residues; d marks the D form. Peptide text beside a SMILES is read from it. * marks the point of attachment. F2Pmp = N[C@@H](Cc1ccc(C(F)(F)P(=O)(O)O)cc1)C(=O)O; Phe(4-COOH) = N[C@@H](Cc1ccc(C(=O)O)cc1)C(=O)O; Fmoc = O=C(OCC1c2ccccc2-c2ccccc21)*
# Tests used:
# [1] = Inhibition of metallo-beta-lactamase IMP-1 (unknown origin)
# [2] = Inhibition of human arginase
# [3] = Inhibition of Plasmodium berghei arginase
# [4] = Inhibition of human purple acid phosphatase; conditions: for pIC50: read-out: IC50
# [5] = Inhibition of mouse macrophage arginase
# [6] = target: T1, Arginase-1 (Rattus norvegicus, UniProt P07824); test: Inhibition of rat liver arginase
# T1 sequence (P07824 whole entry): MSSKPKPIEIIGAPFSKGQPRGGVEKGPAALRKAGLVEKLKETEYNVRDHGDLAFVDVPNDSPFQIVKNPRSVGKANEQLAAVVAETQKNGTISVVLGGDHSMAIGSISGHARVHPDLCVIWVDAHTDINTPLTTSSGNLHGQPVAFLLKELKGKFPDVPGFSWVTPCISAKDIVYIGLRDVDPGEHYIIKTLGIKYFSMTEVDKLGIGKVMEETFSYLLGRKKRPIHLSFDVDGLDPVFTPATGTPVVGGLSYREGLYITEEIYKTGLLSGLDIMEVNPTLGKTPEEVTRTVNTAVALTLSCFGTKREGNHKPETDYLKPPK
# [7] = Inhibition of pig purple acid phosphatase at pH 3.3; set-up: species or system Sus scrofa
# [8] = Inhibition of pig purple acid phosphatase at pH 4.9; set-up: species or system Sus scrofa
# [9] = target: Beta-lactamase L1 (Stenotrophomonas maltophilia, UniProt P52700); test: Inhibition of Stenotrophomonas maltophilia metallo-beta-lactamase L1 after 5 mins
# [10] = Inhibition of metallo-beta-lactamase VIM2 (unknown origin)
# [11] = Inhibition of metallo-beta-lactamase L1 (unknown origin)
# [12] = Inhibition of metallo-beta-lactamase BcII (unknown origin)
# [13] = Inhibition of metallo-beta-lactamase CphA (unknown origin)
# [14] = target: T2, Fe(3+)-Zn(2+) purple acid phosphatase (Phaseolus vulgaris, UniProt P80366); test: Inhibition of red kidney beans purple acid phosphatase
# T2 sequence (P80366 whole entry): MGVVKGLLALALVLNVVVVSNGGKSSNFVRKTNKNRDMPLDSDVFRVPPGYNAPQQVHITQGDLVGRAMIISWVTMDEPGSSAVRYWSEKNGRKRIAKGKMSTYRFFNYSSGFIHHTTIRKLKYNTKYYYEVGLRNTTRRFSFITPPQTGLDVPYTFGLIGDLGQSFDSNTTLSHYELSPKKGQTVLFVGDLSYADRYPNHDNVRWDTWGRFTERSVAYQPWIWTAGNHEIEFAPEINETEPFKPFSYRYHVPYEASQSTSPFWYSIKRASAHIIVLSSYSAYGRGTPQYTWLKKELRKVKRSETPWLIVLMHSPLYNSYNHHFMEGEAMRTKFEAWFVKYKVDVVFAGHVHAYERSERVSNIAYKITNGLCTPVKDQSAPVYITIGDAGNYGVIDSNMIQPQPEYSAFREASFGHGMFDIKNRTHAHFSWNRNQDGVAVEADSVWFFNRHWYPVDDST
# [15] = target: Metallo-beta-lactamase type 2 (Bacteroides fragilis, UniProt P25910); test: Competitive inhibition of Bacteroides fragilis metallo-beta-lactamase CcrA
# [16] = Inhibition of human recombinant purple acid phosphatase at pH 3.3
# [17] = Inhibition of human recombinant purple acid phosphatase at pH 4.9
# [18] = Competitive inhibition of Bacillus cereus 569/H metallo-beta-lactamase BcII by Eadie-Hofstee plot analysis
# [19] = Inhibition of metallo-beta-lactamase CcrA (unknown origin)
# [20] = Inhibition of metallo-beta-lactamase IMP-1 (unknown origin) using nitrocefin as substrate incubated for 15 mins prior to substrate addition
# [21] = Inhibition of Bacillus cereus metallo-beta-lactamase BcII
# [22] = Inhibition of Bacillus cereus 5/B/6 metallo-beta-lactamase […] incubated for 1 min prior to substrate addition by spectrophotometry
# [23] = Inhibition of arginase (unknown origin); set-up: species or system Homo sapiens
# Sequence of Beta-lactamase L1 (P52700 whole entry): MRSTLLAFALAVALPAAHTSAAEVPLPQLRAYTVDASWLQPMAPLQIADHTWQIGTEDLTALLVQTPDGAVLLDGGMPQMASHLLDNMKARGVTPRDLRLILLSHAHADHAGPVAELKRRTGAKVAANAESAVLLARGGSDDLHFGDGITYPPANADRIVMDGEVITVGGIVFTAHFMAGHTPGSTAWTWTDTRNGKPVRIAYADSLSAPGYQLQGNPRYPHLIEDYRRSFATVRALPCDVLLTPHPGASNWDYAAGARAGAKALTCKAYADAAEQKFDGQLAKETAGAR
# Sequence of Metallo-beta-lactamase type 2 (P25910 whole entry): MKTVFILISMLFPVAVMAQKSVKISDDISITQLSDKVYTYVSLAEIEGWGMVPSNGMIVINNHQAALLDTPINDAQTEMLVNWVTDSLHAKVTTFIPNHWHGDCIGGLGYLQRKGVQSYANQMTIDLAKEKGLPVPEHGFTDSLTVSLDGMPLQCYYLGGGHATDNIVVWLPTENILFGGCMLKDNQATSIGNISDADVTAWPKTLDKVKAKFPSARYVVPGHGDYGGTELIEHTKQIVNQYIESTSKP
compound,measurement,setting,value
O[C@H](CS)[C@@H](O)CS,INH,[1],2.2 µM
N[C@@H](CCCC[N+](=O)[O-])C(=O)O,pKi,[2],4.22
same,pKi,[3],4.96
O=P(O)(O)Cc1cccc2ccccc12,pIC50,[4],4.52
N=C(NO)NCC[C@H](N)C(=O)O [NOR-NOHA],pIC50,[5],4.30
same,pIC50,[6],5.70
C[C@H](NC(=O)[C@H](Cc1ccc(C(C(=O)O)C(=O)O)cc1)NC(=O)[C@H](CCC(=O)O)NC(=O)OCC1c2ccccc2-c2ccccc21)C(N)=O,pKi,[7],5.22
same,pKi,[8],4.42
COC(=O)c1c(O)ccc2nc3c(C(=O)O)cccc3nc12,pIC50,[9],6.00
CC(NC(=O)COc1ccccc1)C(=O)C(F)(F)F (stereo unspecified),pKi,[10],5.82
same,pKi,[11],5.82
same,pKi,[12],5.82
same,pKi,[13],5.82
O=P(O)(O)CP(=O)(O)O [MEDRONIC ACID],pKi,[14],3.85
O=C(O)CCS,INH,[1],1.2 µM
CC(=O)Oc1cc(C[C@H](NC(=O)[C@H](CCC(=O)O)NC(=O)OCC2c3ccccc3-c3ccccc32)C(=O)N[C@@H](C)C(N)=O)ccc1OCC(=O)O,pKi,[7],3.38
same,pKi,[8],3.11
OCCCS,INH,[1],2.5 µM
c1ccc(-c2nnn[nH]2)c(-c2ccc(Cn3c4ccccc4c4ccccc43)cc2)c1,pIC50,[15],6.52
C[C@H](NC(=O)[C@H](Cc1ccc(C(F)(F)P(=O)(O)O)cc1)NC(=O)[C@H](CCC(=O)O)NC(=O)OCC1c2ccccc2-c2ccccc21)C(=O)O (Fmoc-Glu-[F2Pmp]-Ala-OH),pKi,[16],4.17
same,pKi,[17],4.20
CC(=O)N[C@H]1[C@H](O[C@H]2C[C@@H](C(=O)NCCS(=O)(=O)O)N[C@@H]2CO)O[C@H](CO)[C@@H](OS(=O)(=O)O)[C@@H]1O [BULGECIN A],pIC50,[18],3.64
OCCS,INH,[1],12 µM
COC1OC(C)=Cc2oc3cc(O)c(O)c(C(=O)O)c3c(=O)c21 (stereo unspecified),pKi,[12],4.10
same,pKi,[1],4.77
same,pKi,[19],5.47
O=C(COc1ccccc1)NC(Cc1ccccc1)C(=O)C(F)(F)F (stereo unspecified),pKi,[10],5.82
same,pKi,[11],5.82
same,pKi,[12],5.82
same,pKi,[13],5.82
CC(NC(=O)COc1ccccc1)C(O)C(F)(F)F (stereo unspecified),pKi,[10],5.82
same,pKi,[11],5.82
same,pKi,[12],5.82
same,pKi,[13],5.82
O[C@H](CS)[C@H](O)CS,INH,[1],0.55 µM
O=P(O)(O)c1ccccc1S,pIC50,[14],3.46
O=C(c1ccccc1)C(C(=O)c1ccccc1)(c1cccc2ccccc12)P(=O)(O)O,pIC50,[4],5.85
O=C(O)c1cccc(C(=O)O)n1 [DIPICOLINIC ACID],pIC50,[11],5.11
same,pIC50,[12],4.66
C[C@H](NC(=O)[C@H](Cc1ccc(OC(F)(C(=O)O)C(=O)O)cc1)NC(=O)[C@H](CCC(=O)O)NC(=O)OCC1c2ccccc2-c2ccccc21)C(=O)O,pKi,[16],4.44
same,pKi,[17],4.13
C[C@H](NC(=O)[C@H](Cc1ccc(C(F)(C(=O)O)C(=O)O)cc1)NC(=O)[C@H](CCC(=O)O)NC(=O)OCC1c2ccccc2-c2ccccc21)C(N)=O,pKi,[7],5.10
same,pKi,[8],4.31
O=C(O)[C@@H](Cc1ccc2c(c1)OCO2)[C@H](Cc1ccc2c(c1)OCO2)C(=O)O,pIC50,[20],8.05
O=P(O)(O)C(Cc1ccc(-c2ccccc2)cc1)c1cccc2ccccc12 (stereo unspecified),pIC50,[4],5.20
C[C@H](NC(=O)[C@H](Cc1ccc(C(=O)O)cc1)NC(=O)[C@H](CCC(=O)O)NC(=O)OCC1c2ccccc2-c2ccccc21)C(N)=O (Fmoc-Glu-[Phe(4-COOH)]-Ala-NH2),pKi,[7],4.00
same,pKi,[8],3.79
COc1ccc(C(S)C(=O)O)cc1 (stereo unspecified),pKi,[21],7.05
C[C@H](NC(=O)[C@H](Cc1ccc(OC(C(=O)O)C(=O)O)cc1)NC(=O)[C@H](CCC(=O)O)NC(=O)OCC1c2ccccc2-c2ccccc21)C(=O)O,pKi,[16],4.85
same,pKi,[17],4.59
O=S(=O)(N/N=C/c1c2ccccc2cc2ccccc12)c1ccc2ccccc2c1,pKi,[22],7.70
same,pIC50,[1],5.80
O=P(O)(O)CCCS,pIC50,[14],3.80
C[C@H](NC(=O)[C@H](Cc1ccc(CC(=O)O)c(C(=O)O)c1)NC(=O)[C@H](CCC(=O)O)NC(=O)OCC1c2ccccc2-c2ccccc21)C(N)=O,pKi,[7],3.70
same,pKi,[8],3.55
O=C(O)C(S)c1ccc(F)cc1 (stereo unspecified),pKi,[21],7.05
O=P(O)(O)CS,pIC50,[14],4.10
O=C(COc1ccccc1)NC(Cc1ccccc1)C(O)C(F)(F)F (stereo unspecified),pKi,[10],5.82
same,pKi,[11],5.82
same,pKi,[12],5.82
same,pKi,[13],5.82
O=C(O)CP(=O)(O)O [FOSFONET],pKi,[14],3.23
C[C@H](NC(=O)[C@H](Cc1ccc(OCC(=O)O)c(C(=O)O)c1)NC(=O)[C@H](CCC(=O)O)NC(=O)OCC1c2ccccc2-c2ccccc21)C(N)=O,pKi,[7],3.95
same,pKi,[8],3.84
NNC(N)=S [THIOSEMICARBAZIDE],pKi,[23],4.00
O=C(O)C(S)c1ccccc1 (stereo unspecified),pKi,[21],7.05
CC(S)C(=O)O (stereo unspecified),INH,[1],0.19 µM
CCOC(=O)CS,INH,[1],1.4 µM
COC(=O)c1cc(SCC(NC(C)=O)C(=O)OC)cc2nc3c(C(=O)O)cccc3nc12 (stereo unspecified),pIC50,[9],6.00
O=C(O)c1ccccc1S [THIOSALICYLIC ACID],pKi,[21],5.04
O=C(O)CCP(=O)(O)O,pKi,[14],3.80
O=C(O)CS,INH,[1],0.23 µM
O=P(O)(O)C(O)c1cccc2ccccc12 (stereo unspecified),IC50,[4],Not Active
CCOC(=O)CCS,INH,[1],0.25 µM
O=P(O)(O)CCS,pIC50,[14],2.52
SCc1ccccc1 [BENZENEMETHANETHIOL],pIC50,[21],5.04
